Measured values taken from ChEMBL document CHEMBL1146989 (Bioorg Med Chem Lett, 2006).

Target: PI3-kinase p110-alpha/p85-alpha (Homo sapiens, UniProt P42336)
Experiment: Inhibition of PI3 kinase p110alpha/p85-alpha complex
Type: protein-complex assay

Chain of PI3-kinase p110-alpha/p85-alpha (P27986 whole entry): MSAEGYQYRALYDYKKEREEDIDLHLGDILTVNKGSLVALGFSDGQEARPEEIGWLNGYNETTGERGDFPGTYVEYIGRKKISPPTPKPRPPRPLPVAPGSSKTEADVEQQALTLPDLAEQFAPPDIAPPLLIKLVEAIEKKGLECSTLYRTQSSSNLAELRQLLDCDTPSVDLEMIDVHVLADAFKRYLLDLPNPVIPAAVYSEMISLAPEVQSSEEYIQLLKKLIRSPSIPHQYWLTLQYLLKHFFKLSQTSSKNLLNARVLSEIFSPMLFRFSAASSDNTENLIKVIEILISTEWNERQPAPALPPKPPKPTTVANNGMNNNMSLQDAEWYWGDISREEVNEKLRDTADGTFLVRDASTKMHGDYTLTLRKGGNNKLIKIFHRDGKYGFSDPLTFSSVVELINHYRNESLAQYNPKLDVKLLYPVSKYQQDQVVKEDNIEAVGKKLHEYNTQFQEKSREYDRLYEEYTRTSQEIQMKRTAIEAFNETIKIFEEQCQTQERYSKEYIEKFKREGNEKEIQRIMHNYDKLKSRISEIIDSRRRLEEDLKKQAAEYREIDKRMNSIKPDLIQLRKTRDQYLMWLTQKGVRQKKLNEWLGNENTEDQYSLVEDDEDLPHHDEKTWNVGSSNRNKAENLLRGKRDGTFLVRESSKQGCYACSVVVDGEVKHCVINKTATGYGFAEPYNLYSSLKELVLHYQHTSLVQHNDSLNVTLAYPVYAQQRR
Chain of PI3-kinase p110-alpha/p85-alpha (P42336 whole entry): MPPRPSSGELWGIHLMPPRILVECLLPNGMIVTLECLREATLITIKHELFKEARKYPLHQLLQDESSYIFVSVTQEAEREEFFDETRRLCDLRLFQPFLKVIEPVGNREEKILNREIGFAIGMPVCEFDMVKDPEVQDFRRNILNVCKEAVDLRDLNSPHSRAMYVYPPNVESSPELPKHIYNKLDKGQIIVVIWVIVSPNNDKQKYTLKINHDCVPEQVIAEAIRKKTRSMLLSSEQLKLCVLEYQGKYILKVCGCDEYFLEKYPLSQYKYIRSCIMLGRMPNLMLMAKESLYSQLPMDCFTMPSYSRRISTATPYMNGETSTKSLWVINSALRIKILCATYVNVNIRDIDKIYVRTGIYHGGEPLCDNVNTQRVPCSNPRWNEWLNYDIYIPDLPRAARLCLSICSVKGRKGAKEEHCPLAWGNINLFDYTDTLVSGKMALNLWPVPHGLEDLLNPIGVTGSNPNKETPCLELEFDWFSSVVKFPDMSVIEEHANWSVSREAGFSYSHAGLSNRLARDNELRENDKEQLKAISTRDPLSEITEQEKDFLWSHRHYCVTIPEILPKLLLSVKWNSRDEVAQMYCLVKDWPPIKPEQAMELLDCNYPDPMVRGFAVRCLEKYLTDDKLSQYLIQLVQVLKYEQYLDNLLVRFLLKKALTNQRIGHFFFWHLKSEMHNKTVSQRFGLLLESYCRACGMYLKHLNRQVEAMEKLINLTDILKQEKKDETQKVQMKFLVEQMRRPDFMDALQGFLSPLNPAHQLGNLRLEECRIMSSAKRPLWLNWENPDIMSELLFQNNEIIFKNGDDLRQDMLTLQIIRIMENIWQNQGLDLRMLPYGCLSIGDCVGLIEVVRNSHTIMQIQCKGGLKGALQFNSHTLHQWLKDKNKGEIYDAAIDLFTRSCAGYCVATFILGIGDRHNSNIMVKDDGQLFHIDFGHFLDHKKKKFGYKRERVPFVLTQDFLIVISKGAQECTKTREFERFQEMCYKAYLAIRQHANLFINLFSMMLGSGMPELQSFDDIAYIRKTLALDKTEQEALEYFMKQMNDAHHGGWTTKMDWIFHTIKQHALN

SMILES	IC50
CN(CC(=O)O[C@@H]1CC(=O)c2coc3c2[C@@]1(C)c1ccc2c(c1C3=O)CCC2=O)c1ccc([N+](=O)[O-])c2nonc12	9.6 nM
COC[C@H]1OC(=O)c2coc3c2[C@@]1(C)C1=C(C3=O)C2CC[C@H](OC(=O)Cc3cc(=O)oc4cc(N(C)C)ccc34)[C@@]2(C)C[C@H]1OC(C)=O (stereo partly specified)	695 nM
COC[C@H]1OC(=O)c2coc3c2[C@@]1(C)C1=C(C3=O)C2CC[C@H](OC(=O)CN(C)c3ccc([N+](=O)[O-])c4nonc34)[C@@]2(C)C[C@H]1OC(C)=O (stereo partly specified)	225 nM
COC[C@H]1OC(=O)c2coc3c2[C@@]1(C)C1=C(C3=O)C2CCC(=O)[C@@]2(C)C[C@H]1OC(=O)CN(C)c1ccc([N+](=O)[O-])c2nonc12 (stereo partly specified)	0.7 nM
CN(C)c1ccc2c(CC(=O)O[C@@H]3CC(=O)c4coc5c4[C@@]3(C)c3ccc4c(c3C5=O)CCC4=O)cc(=O)oc2c1	1.9 nM
COC[C@H]1OC(=O)c2coc3c2[C@@]1(C)C1=C(C3=O)C2CCC(=O)[C@@]2(C)C[C@H]1OC(=O)Cc1cc(=O)oc2cc(N(C)C)ccc12 (stereo partly specified)	10.1 nM
